Results taken from patent US20230339919A1, “BENZO OXYGEN-CONTAINING HETEROCYCLIC COMPOUNDS AND MEDICAL APPLICATION THEREOF” (AB PHARMA LTD., priority 2020, published 2023).
“Also recorded” adds a separate entry of the source. Like-named read-outs stand apart in the source and are kept apart here.

Experiments:
[1] = molecular target: T1, GPR40 (Homo sapiens, UniProt O14842); experiment: GPR40 agonist activity, FLIPR calcium assay in CHO-K1/GPR40 cells; type: cell-based
T1 construct: expressed in transfected cells; host or cells: CHO-K1
Method: Inoculate CHO-K1/GPR40 cells in 384-well plates at a density of 10,000 cells/well. Cells were incubated at 37° C. for 24 hours in a 5% CO2 incubator. After the experiment, discard the cell culture medium, quickly add […] of 1× FLIPR® Calcium 6 dye containing 2.5 mM/Probenecid to each well and incubate at 37° C. for 2 hours protected from light. For the determination, different concentrations of drug ([…]) were added to the wells and the fluorescence values were read. The fluorescence excitation wavelength was 494 nm and emission wavelength was 516 nm. FLIPR instrument data, EC50 was derived from the formula Y=Bottom+(Top−Bottom)/(1+(EC50/X)^HillSlope).

[2] = Acute Toxicity Study (MTD) by gavage in healthy mice; type: in vivo; settings: mouse, in vivo, po; mice, 600 mg/kg by gavage, 5 consecutive days; read-out: LD50
[3] = system: healthy mice; experiment: as above; type: in vivo
[4] = molecular target: hERG (Homo sapiens, UniProt Q12809); experiment: hERG assay
[5] = Ames assay
[6] = molecular target: BSEP bile salt transporter (Homo sapiens, UniProt O95342); experiment: BSEP (Bile Salt Export Pump) assay, taurocholic acid uptake by BSEP vesicles, LC/MS/MS; type: in vitro ADME
Description: In this experiment, we performed a preliminary study on the inhibition of the uptake of the substrate taurocholic acid (TCA) by the BSEP bile salt transporter by LC/MS/MS. The BSEP protein microvesicles with reverse uptake ability were obtained by transfecting Hi5 cells with the BSEP gene, which is capable of TCA uptake and uptake of taurocholic acid. The principle of this experiment is to perform substrate uptake by BSEP protein microcapsules in the presence of energy ATP, the substrate TCA and the candidate compound to be tested, after a certain transit time, the energy, substrate and candidate compound were completely washed out of the microvesicle, and the absorbed substrate TCA was released by lysis of the microvesicle. […] The starting concentration of the sample was 100 mM, diluted in 2-fold gradient with Bravo apparatus, with 11 concentration gradients; the lowest point concentration was 97.65 μM. • 3. Control compound (Glyburide) starting at 20 mM, diluted in 2-fold gradient with Bravo instrument, with 11 concentration gradients; the lowest point concentration was 19.53 μM. • 4. 300 nl of compound was transferred to the middle plate using the ECHO autosampler. • 5. Positive control (HPE) wells and negative control (ZPE) wells were also transferred 300 nl DMSO each. […] Add 14.7 μl of ATP buffer to the corresponding wells of the compound and ZPE, respectively. • 2. Add 14.7 μl of AMP buffer to the corresponding wells of the HPE. • 3. Shake the plate at 25 degrees C. for 10 minutes. • 4. […] Immediately add 5 ul of 0.5M EDTA solution to all wells, and then add 65 μl of Buffer B. All reactions are completed. • 6. Transfer […] of liquid from the end of reaction compound plate to the filter plate using the spiking apparatus. • 7. After placing the liquid receiving plate under the filter plate, use a centrifuge to remove the liquid and discard the liquid received in the receiving plate. • 8. Add 90 μl of buffer B to the filter plate and repeat step 7. Repeat steps 7 and 8 to wash the filter plate a total of three times. • 9. Let the filter plate dry overnight. • 10. Add 81 μl of 80% methanol/water solution to the filter plate the next day. • 11. Apply membrane to the filter plate and vibrate the plate for 15 minutes. • 12. Place a new liquid receiver plate under the filter plate and centrifuge for 5 min to filter all the liquid from the filter plate into the receiver plate. • 13. Add 13.5 μl of internal standard solution to each well of the liquid receiver plate and seal the plate with a sealing film. • 14. Using LC/MS/MS, detect the content of taurocholic acid in the receiver plate.

[7] = cited from earlier work
[8] = inhibition of TCA uptake by BSEP vesicles, read-out: Potential inhibitory side effects BSEP (IC50)

T1 sequence (O14842 whole entry): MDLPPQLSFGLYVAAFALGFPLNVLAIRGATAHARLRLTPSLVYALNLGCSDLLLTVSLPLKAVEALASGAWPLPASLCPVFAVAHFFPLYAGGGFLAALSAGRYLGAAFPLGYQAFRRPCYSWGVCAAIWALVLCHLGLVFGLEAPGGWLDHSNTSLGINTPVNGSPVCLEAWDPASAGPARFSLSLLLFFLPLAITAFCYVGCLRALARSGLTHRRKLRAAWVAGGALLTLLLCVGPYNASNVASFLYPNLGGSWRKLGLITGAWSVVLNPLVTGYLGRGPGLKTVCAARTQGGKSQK
BSEP bile salt transporter, sequence (O95342 whole entry): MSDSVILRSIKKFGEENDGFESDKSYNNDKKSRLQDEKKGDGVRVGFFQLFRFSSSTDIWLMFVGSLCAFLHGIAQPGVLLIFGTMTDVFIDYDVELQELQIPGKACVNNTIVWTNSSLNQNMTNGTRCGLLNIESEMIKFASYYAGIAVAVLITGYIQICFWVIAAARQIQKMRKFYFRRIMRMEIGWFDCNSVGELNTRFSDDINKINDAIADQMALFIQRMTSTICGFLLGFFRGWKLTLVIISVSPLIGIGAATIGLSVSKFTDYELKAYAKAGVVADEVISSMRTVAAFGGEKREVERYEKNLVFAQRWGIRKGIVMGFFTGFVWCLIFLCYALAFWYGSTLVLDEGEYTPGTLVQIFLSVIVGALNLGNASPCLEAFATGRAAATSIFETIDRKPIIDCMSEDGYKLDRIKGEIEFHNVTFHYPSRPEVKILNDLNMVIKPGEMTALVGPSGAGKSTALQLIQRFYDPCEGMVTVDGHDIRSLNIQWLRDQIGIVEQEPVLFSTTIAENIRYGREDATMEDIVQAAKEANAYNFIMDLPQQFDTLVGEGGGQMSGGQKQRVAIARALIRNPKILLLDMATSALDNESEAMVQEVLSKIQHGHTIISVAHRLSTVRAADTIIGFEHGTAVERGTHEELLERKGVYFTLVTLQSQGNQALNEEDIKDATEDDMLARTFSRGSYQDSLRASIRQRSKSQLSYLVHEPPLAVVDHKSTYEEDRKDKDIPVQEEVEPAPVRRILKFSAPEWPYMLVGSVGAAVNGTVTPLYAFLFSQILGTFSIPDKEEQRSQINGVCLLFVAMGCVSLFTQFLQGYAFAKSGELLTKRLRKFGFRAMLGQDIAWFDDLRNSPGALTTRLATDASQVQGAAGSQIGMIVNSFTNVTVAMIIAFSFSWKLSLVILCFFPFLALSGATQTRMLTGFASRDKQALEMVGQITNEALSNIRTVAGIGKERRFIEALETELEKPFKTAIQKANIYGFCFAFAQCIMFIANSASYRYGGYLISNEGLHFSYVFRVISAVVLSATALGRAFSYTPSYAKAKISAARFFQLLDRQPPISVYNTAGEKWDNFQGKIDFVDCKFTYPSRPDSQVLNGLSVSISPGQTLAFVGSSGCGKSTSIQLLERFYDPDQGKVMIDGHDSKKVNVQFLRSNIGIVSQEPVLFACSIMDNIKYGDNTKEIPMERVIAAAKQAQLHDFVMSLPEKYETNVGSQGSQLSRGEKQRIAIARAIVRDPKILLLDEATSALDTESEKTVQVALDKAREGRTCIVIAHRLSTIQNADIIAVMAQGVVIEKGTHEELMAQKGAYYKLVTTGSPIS
hERG, sequence (Q12809 whole entry): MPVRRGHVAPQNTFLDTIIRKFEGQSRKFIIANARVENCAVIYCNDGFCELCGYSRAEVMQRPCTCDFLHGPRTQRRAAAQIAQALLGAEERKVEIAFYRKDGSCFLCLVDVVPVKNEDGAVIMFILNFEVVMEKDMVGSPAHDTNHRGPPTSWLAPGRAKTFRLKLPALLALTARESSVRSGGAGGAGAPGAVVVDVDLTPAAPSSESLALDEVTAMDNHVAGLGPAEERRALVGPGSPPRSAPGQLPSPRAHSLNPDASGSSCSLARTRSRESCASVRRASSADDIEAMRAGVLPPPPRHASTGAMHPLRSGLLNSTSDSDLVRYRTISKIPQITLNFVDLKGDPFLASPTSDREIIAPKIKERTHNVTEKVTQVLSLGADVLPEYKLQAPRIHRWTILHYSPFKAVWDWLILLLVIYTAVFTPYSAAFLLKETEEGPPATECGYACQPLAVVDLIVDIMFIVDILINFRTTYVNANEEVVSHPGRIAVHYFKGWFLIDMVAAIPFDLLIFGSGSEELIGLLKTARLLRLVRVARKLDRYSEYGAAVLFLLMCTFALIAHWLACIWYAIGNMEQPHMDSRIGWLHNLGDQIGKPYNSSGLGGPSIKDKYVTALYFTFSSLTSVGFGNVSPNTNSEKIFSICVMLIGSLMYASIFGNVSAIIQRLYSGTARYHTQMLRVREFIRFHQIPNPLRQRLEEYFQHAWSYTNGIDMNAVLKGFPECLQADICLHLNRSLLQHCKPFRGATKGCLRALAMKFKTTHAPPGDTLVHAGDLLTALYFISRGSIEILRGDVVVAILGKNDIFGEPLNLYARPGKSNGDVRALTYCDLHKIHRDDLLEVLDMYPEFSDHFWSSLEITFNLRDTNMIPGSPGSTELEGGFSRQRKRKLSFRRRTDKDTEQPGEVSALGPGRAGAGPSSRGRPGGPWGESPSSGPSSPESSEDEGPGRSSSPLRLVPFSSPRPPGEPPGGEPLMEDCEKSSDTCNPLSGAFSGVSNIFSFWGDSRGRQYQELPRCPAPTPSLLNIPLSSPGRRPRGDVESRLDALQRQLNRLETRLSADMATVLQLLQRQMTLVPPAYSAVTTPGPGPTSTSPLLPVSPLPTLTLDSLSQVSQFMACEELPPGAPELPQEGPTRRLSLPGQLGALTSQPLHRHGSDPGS

CC(C)(C)OC(=O)Nc1cc(COc2ccc3c(c2)OC[C@H]3CC(=O)O)c2c(c1)OCO2 [IIb-43]
EC50 ([1]; GPR40 agonist activity range (EC50), CHO-K1/GPR40 cells, read-out: GPR40 activity): < 0.01 µM
EC50 ([1]; Table 4, read-out: GPR40 Activity (hEC50)): 0.0068 µM
EC50 ([1]; read-out: GPR40 activity (EC50)): < 0.01 µM
LD50 at 5 days [2]: > 600 mg/kg
overall / acute toxicity ([3]; MTD high dose 600 mg/kg/day, mice, 600 mg/kg/day): low and very low
abnormalities in body weight and external and internal observations ([3]; during the dosing and 5-day recovery period, 600 mg/kg): no abnormalities
autopsy results (heart, liver, lung, kidney, intestine) ([3]; mice, 600 mg/kg): did not reveal any abnormal changes; also recorded: did not reveal any abnormalities
survival rate of the mice after administration ([3]; mice, 600 mg/kg by gavage, 5 days): 100%
IC50 [4]: > 30 µM
Ames assay result [5]: no relevant side effects
IC50 [6, 8]: 66.8 µM
IC50 ([6]; read-out: BSEP): > 25 µM

Cc1cc(OCCCS(C)(=O)=O)cc(C)c1-c1cccc(COc2ccc3c(c2)OC[C@H]3CC(=O)O)c1 [Ref-1]
risk of causing hypoglycaemia ([7]; 50 mg once daily, versus control sulphonylureas): significantly lower than that of the control sulphonylureas
hepatotoxicity ([7]; clinical studies terminated in 2013): problems with hepatotoxicity
effect on insulin secretion ([7]; when blood glucose levels are normal): no effect
IC50 [6, 8]: 7.1 µM
